Source: ChEMBL document CHEMBL5696439 (Cancer Res, 2010)
Activity calls are given as the source filed them. The rule behind the calls is not given here.

What was measured:
[1] = molecular target: RAC-gamma serine/threonine-protein kinase (Homo sapiens) (UniProt Q9Y243); assay: Inhibition of recombinant human full-length His-tagged AKT3 expressed in insect cells at 2 uM using Ser/Thr 06 as substrate measured after 1 hr by Z'-LYTE assay relative to control; settings: Insect cell
[2] = molecular target: Cyclin-dependent kinase 5/CDK5 activator 1 (Homo sapiens) (UniProt Q00535+Q15078); assay: Inhibition of recombinant human full-length GST/His-tagged CDK5/p35 expressed in insect cells at 2 uM using Ser/Thr 12 as substrate measured after 1 hr by Z'-LYTE assay relative to control; settings: Insect cell
[3] = molecular target: Serine/threonine-protein kinase Chk2 (Homo sapiens) (UniProt O96017); assay: Inhibition of recombinant human full-length His-tagged CHEK2 expressed in baculovirus expression system at 2 uM using Ser/Thr 07 as substrate measured after 1 hr by Z'-LYTE assay relative to control
[4] = molecular target: Ephrin type-A receptor 3 (Homo sapiens) (UniProt P29320); assay: Inhibition of recombinant human His-tagged EPHA3 (568-976 residues) expressed in baculovirus expression system at 2 uM measured after 1 hr by Z'-LYTE assay relative to control
[5] = molecular target: Ephrin type-A receptor 8 (Homo sapiens) (UniProt P29322); assay: Inhibition of recombinant human GST-tagged EPHA8 (565-1005 residues) expressed in insect cells at 2 uM using Tyr 02 as substrate measured after 1 hr by Z'-LYTE assay relative to control; settings: Insect cell
[6] = molecular target: Tyrosine-protein kinase Fes/Fps (Homo sapiens) (UniProt P07332); assay: Inhibition of recombinant human full-length His-tagged FES expressed in baculovirus expression system at 2 uM using Tyr 01 as substrate measured after 1 hr by Z'-LYTE assay relative to control
[7] = molecular target: Glycogen synthase kinase-3 alpha (Homo sapiens) (UniProt P49840); assay: Inhibition of recombinant human full-length GST-tagged GSK3A expressed in insect cells at 2 uM using Ser/Thr 09 as substrate measured after 1 hr by Z'-LYTE assay relative to control; settings: Insect cell
[8] = molecular target: Homeodomain-interacting protein kinase 4 (Homo sapiens) (UniProt Q8NE63); assay: Inhibition of recombinant human full-length GST-tagged HIPK4 expressed in insect cells at 2 uM using Ser/Thr 18 as substrate measured after 1 hr by Z'-LYTE assay relative to control; settings: Insect cell
[9] = test system: Mast/stem cell growth factor receptor Kit (Homo sapiens), P10721 [T670I]; assay: Inhibition of recombinant human His-tagged KIT T670I mutant (544-976 residues) expressed in insect cells at 2 uM using […] as substrate measured after 1 hr by Z'-LYTE assay relative to control
[10] = molecular target: Mitogen-activated protein kinase kinase kinase kinase 4 (Homo sapiens) (UniProt O95819); assay: Inhibition of recombinant human GST-tagged MAP4K4 (1-328 residues) expressed in insect cells at 2 uM using Ser/Thr 07 as substrate measured after 1 hr by Z'-LYTE assay relative to control; settings: Insect cell
[11] = test system: Platelet-derived growth factor receptor alpha (Homo sapiens), P16234 [V561D]; assay: Inhibition of recombinant human GST-tagged PDGFRA V561D mutant (550-1089 residues) expressed in insect cells at 2 uM using Tyr 04 as substrate measured after 1 hr by Z'-LYTE assay relative to control; settings: Insect cell
[12] = molecular target: cAMP-dependent protein kinase catalytic subunit alpha (Homo sapiens) (UniProt P17612); assay: Inhibition of recombinant human His-tagged PRKACA (1-351 residues) expressed in E.coli at 2 uM using Ser/Thr 01 as substrate measured after 1 hr by Z'-LYTE assay relative to control
[13] = molecular target: Protein kinase C delta type (Homo sapiens) (UniProt Q05655); assay: Inhibition of recombinant human full length GST-tagged PRKCD expressed in baculovirus expression system at 2 uM using Ser/Thr 07 as substrate measured after 1 hr by Z'-LYTE assay relative to control
[14] = molecular target: Ribosomal protein S6 kinase alpha-1 (Homo sapiens) (UniProt Q15418); assay: Inhibition of recombinant human full length His-tagged RPS6KA1 expressed in insect cells at 2 uM using Ser/Thr 06 as substrate measured after 1 hr by Z'-LYTE assay relative to control; settings: Insect cell
[15] = molecular target: Testis-specific serine/threonine-protein kinase 2 (Homo sapiens) (UniProt Q96PF2); assay: Inhibition of recombinant human full length His-tagged STK22B expressed in insect cells at 2 uM using Ser/Thr 04 as substrate measured after 1 hr by Z'-LYTE assay relative to control; settings: Insect cell
[16] = molecular target: SRSF protein kinase 3 (Homo sapiens) (UniProt Q9UPE1); assay: Inhibition of recombinant human full length GST-tagged STK23 expressed in baculovirus expression system at 2 uM using Ser/Thr 18 as substrate measured after 1 hr by Z'-LYTE assay relative to control
[17] = molecular target: Serine/threonine-protein kinase 4 (Homo sapiens) (UniProt Q13043); assay: Inhibition of recombinant human full length GST-tagged STK4 expressed in insect cells at 2 uM using Ser/Thr 07 as substrate measured after 1 hr by Z'-LYTE assay relative to control; settings: Insect cell
HCT-116 = assay: Antiproliferative activity against human HCT-116 cells assessed as cell growth inhibition incubated for 24 hrs by MTS assay; format: functional, cell-based; settings: HCT-116, 24 h
A498 = assay: Antiproliferative activity against human A498 cells assessed as cell growth inhibition at 10 micromol/L incubated for 3 days by MTS assay relative to control; format: functional; settings: A498, 72 h, dose 10 µmol/L, time 3 day
BT-474 = assay: Induction of apoptosis in human BT-474 cells assessed as increase in PARP cleavage at 0.3 to 3 micromol/L incubated for 48 hrs by Western blot analysis; format: functional, cell-based; settings: dose 0.3-3 µmol/L
MDA-MB-361 [18] = assay: Antitumor activity against human MDA-MB-361 cells assessed as block the accumulation of HIF-2alpha in low oxygen at 0.3 micromol/L incubated for 24 hrs by immunoblot analysis; format: functional, cell-based; settings: dose 0.3 µmol/L
MDA-MB-361 [19] = assay: Antitumor activity against human MDA-MB-361 cells xenografted in female nude mouse model assessed as suppression in P-S6K at T389 level at 50 mg/kg, iv administered once a week and measured at least 8 hrs by immunoblot analysis; format: functional, organism-based
MDA-MB-361 [20] = assay: Antitumor activity against human MDA-MB-361 cells xenografted in female nude mouse model assessed as suppression in P-AKT at S473 level at 50 mg/kg, iv administered once a week and measured at least 8 hrs by immunoblot analysis; format: functional, organism-based
MDA-MB-361 [21] = assay: Antitumor activity against human MDA-MB-361 cells xenografted in female nude mouse model assessed as substantial regression in tumor at 50 mg/kg, po qd administered as 5 days on/2 days off regimen for 4 cycles; format: functional, organism-based; settings: time 28.0 day
MDA-MB-361 [22] = assay: Antitumor activity against human MDA-MB-361 cells xenografted in female nude mouse model assessed as induction in PARP cleavage at 50 mg/kg, po qd administered as 5 days on/2 days off regimen for 4 cycles by immunoblot analysis; format: functional, organism-based; settings: time 28.0 day

Chain of Tyrosine-protein kinase Fes/Fps (Homo sapiens) (P07332 whole entry): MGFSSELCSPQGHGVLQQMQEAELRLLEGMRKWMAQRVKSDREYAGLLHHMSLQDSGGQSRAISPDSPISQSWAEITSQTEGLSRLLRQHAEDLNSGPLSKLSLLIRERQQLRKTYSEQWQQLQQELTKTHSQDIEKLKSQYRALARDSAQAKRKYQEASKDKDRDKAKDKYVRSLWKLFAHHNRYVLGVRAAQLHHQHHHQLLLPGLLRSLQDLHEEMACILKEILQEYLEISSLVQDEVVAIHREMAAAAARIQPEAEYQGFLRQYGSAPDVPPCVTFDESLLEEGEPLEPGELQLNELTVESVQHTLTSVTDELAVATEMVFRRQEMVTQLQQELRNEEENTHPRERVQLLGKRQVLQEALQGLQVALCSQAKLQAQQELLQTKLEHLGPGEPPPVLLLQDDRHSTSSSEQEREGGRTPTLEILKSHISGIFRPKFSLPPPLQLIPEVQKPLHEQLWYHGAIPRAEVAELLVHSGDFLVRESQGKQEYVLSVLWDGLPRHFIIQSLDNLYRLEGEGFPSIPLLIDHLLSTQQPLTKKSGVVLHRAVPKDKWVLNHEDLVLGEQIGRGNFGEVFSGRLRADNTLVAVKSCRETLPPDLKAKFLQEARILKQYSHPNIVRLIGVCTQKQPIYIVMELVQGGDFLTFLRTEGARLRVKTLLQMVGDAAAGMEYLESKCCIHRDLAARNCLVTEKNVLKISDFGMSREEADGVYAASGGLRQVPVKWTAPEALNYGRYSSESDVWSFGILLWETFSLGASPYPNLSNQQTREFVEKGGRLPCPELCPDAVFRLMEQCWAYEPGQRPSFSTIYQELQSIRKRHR
Chain of Mitogen-activated protein kinase kinase kinase kinase 4 (Homo sapiens) (O95819 2-1239 limits assumed): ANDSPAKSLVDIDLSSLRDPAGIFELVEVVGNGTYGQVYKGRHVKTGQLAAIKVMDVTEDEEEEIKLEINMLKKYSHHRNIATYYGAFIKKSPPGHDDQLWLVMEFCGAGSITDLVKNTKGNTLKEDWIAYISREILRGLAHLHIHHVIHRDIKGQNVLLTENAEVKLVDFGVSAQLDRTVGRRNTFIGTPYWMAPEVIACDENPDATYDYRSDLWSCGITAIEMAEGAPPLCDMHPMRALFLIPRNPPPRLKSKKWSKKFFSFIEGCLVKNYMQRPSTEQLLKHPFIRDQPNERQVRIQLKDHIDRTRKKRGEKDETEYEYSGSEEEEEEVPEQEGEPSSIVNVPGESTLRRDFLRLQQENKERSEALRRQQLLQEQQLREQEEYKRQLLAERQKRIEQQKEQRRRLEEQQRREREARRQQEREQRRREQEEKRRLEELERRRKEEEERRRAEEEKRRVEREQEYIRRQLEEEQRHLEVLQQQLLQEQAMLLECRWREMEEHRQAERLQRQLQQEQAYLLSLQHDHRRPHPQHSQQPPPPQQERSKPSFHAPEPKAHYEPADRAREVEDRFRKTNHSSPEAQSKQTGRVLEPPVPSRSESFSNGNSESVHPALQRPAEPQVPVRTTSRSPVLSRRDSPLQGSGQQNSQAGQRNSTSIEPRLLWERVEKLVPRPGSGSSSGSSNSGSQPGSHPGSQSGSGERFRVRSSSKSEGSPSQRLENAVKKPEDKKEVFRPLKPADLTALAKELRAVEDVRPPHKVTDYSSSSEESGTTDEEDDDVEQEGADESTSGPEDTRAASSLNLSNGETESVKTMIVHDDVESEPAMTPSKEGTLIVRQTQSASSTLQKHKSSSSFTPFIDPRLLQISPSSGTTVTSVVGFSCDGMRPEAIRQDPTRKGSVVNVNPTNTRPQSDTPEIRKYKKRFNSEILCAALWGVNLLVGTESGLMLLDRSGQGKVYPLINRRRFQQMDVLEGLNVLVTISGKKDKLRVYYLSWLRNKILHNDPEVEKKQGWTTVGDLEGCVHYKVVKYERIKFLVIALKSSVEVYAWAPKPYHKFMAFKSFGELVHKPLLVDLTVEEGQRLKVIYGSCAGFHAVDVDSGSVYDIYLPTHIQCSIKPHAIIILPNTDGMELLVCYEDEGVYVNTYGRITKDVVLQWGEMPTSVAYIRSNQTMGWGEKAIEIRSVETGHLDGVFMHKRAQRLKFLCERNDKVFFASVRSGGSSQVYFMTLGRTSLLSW
Chain of Testis-specific serine/threonine-protein kinase 2 (Homo sapiens) (Q96PF2 whole entry): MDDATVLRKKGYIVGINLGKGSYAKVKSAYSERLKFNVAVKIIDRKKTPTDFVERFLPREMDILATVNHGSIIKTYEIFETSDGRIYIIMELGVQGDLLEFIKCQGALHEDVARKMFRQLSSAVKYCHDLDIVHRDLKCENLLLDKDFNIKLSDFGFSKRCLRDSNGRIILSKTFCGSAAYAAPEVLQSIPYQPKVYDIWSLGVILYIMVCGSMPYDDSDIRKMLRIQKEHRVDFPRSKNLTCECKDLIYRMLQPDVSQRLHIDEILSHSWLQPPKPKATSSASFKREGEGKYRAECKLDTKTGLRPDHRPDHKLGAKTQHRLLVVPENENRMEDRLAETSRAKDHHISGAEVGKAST
Chain of Ribosomal protein S6 kinase alpha-1 (Homo sapiens) (Q15418 whole entry): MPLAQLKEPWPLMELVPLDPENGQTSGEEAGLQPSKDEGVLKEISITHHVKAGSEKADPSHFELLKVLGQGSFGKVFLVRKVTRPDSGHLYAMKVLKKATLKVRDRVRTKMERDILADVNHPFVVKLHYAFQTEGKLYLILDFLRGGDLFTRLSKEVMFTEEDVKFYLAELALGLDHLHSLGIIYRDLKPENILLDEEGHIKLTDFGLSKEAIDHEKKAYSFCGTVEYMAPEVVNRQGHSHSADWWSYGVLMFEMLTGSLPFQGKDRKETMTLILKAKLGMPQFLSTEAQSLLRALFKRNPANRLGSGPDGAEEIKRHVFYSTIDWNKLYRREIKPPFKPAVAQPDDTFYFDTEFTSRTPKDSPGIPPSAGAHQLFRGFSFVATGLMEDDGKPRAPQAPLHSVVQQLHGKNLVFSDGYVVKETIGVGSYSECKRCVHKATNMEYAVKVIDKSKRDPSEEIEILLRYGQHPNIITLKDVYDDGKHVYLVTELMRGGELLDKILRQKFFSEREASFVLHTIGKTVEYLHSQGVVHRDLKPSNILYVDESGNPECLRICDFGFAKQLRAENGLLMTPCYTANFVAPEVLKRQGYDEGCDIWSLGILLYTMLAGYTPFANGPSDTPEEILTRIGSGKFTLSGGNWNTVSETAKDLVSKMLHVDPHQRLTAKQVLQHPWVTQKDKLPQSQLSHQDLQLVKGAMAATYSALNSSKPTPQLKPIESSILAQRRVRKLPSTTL
Chain of Serine/threonine-protein kinase Chk2 (Homo sapiens) (O96017 whole entry, the tested form may be a part): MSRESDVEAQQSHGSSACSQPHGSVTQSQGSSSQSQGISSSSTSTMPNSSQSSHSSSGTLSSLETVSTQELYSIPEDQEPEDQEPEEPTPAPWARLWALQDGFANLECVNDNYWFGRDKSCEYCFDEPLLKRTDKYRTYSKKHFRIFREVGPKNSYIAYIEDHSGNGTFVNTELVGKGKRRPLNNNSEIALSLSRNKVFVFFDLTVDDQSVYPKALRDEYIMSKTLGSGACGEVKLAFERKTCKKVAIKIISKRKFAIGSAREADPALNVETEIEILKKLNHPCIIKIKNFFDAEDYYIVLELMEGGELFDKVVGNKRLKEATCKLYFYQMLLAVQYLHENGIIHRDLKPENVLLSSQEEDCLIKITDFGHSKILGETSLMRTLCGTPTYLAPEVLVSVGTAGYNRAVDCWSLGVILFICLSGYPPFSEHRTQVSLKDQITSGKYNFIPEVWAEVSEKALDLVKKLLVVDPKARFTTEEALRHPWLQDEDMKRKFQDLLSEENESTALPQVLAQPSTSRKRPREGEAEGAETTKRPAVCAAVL
Chain of Ephrin type-A receptor 3 (Homo sapiens) (P29320 whole entry, the tested form may be a part): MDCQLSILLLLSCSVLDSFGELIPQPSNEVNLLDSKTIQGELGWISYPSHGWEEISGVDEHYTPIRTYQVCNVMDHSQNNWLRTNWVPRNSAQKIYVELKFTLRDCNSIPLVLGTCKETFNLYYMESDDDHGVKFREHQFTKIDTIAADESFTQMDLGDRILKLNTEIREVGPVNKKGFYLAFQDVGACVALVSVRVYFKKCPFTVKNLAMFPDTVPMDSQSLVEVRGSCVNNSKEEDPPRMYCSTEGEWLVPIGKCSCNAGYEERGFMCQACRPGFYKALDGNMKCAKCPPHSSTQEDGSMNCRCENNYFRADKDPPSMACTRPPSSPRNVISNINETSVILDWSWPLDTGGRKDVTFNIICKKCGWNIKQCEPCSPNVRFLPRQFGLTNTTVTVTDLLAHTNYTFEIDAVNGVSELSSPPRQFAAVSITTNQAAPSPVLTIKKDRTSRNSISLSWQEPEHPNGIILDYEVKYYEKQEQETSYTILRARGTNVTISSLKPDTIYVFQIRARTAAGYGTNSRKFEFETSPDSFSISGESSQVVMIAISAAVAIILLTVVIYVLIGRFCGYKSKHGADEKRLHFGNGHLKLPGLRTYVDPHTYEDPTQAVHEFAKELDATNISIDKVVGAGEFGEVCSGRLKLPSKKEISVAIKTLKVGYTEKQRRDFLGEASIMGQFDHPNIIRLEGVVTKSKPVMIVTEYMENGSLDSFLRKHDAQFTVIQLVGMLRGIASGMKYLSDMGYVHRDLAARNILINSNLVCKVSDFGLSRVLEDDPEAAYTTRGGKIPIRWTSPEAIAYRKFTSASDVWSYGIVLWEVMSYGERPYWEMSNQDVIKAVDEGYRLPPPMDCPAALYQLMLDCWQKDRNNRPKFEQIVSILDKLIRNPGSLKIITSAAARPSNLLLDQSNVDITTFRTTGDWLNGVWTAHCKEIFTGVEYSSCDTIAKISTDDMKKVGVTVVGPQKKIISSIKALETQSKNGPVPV

CNC(=O)Nc1ccc(-c2nc(N3CC4CCC(C3)O4)c3cnn(C4CCC5(CC4)OCCO5)c3n2)cc1
inhibition [1]: 2%
inhibition [2]: -4%
inhibition [3]: 3%
inhibition [4]: 4%
inhibition [5]: 24%
inhibition [6]: -1%
inhibition [7]: -1%
inhibition [8]: 7%
inhibition [9]: 7%
inhibition [10]: 10%
inhibition [11]: 3%
inhibition [12]: -3%
inhibition [13]: 16%
inhibition [14]: 4%
inhibition [15]: 2%
inhibition [16]: 6%
inhibition [17]: 12%
IC50 (HCT-116): 380 nM
inhibition at 10 µM (A498): 100%
Activity (BT-474): Active
Activity (MDA-MB-361 [18]): Active
Activity (MDA-MB-361 [19]): Active
Activity (MDA-MB-361 [20]): Active
Activity (MDA-MB-361 [21]): Active
Activity (MDA-MB-361 [22]): Active
